# Patent publication US20250214942A1, “INHIBITORS OF RECEPTOR INTERACTING PROTEIN KINASE I FOR THE TREATMENT OF DISEASE” (Board of Regents, The University of Texas System, priority 2019, published 2025)
# Values joined by “and” are separate entries in the source; they are usually repeats but may differ in a detail not shown here. Equal entries are not always repeated.
# Biological target: RIPK1 (Homo sapiens (Human), UniProt Q13546)
# Test: ADP-Glo kinase assay (RIPK1 activity, conversion of ATP to ADP)
# Type: biochemical
# Conditions: 5 nM RIPK1, 50 μM ATP, 6 h reaction; footnote symbol (a); read-out: RIPK1 Enzyme Avg IC50
# Description: In order to measure RIPK1 activity the ADP-Glo kinase assay (Promega, Catalog #V7002) was used to measure the conversion of ATP to ADP. This enzymatic assay was performed in a 384-well white, Optiplate (Perkin Elmer, Catalog #6007299) with assay buffer consisting of 50 mM HEPES pH 7.5 (Gibco, Catalog #15630-080), 50 mM NaCl (Teknova, Catalog #S0252), 30 mM MgCl2 (Ambion, Catalog #AM9530G), 1 mM DTT (Santa Cruz Biotechnology, Catalog #sc-29089), 0.05% BSA (Sigma, Catalog #A3059-50G) and 0.02% CHAPS (Sigma, Catalog #C5070-5G). Stock solutions of the test compounds were prepared in 100% DMSO (Sigma, Catalog #D2650) and serially diluted 1:3 using 100% DMSO. Compounds were additionally diluted 1:40 in assay buffer, and 2 μL/well were transferred to the assay plate. 4 μL/well (final concentration of 5 nM) of RIPK1 protein (SignalChem, Catalog #R07-1IG-05) diluted in assay buffer and added to the assay plate followed by a 10 minute preincutation at rt. 4 μL/well of ATP (Promega, Catalog #V7002) (final concentration of 50 μM) diluted in assay buffer were then added to the assay plate followed by a 6 h reaction time. Final concentrations of RIPK1 and ATP refer to a 10 μL volume. Luminescence was measured using a BioTek Synergy™ NEO plate reader. IC50 values were calculated using a four-parameter logistic curve fit using Genedata Screener software.
# Sequence of RIPK1 (Q13546 1-327): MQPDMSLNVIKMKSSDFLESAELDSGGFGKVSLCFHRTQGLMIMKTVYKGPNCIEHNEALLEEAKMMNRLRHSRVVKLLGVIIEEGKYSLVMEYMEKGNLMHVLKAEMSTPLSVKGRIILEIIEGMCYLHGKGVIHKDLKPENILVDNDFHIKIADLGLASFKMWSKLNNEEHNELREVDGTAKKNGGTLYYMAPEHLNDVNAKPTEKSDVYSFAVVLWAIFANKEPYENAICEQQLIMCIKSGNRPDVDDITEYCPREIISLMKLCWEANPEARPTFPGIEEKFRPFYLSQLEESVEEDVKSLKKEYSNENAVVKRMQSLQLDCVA
row,Molecule,IC50 [nM]
1,"CC(=O)NC12CC(C(=O)N3CCCC3c3cccc(C)c3)(C1)C2 (stereo not drawn) [Example 119, N-(3-(2-(m-tolyl)pyrrolidine-1-carbonyl)bicyclo[1.1.1]-pentan-1-yl)acetamide]",> 50000
2,"N#CC12CC(C(=O)N3CCC(Oc4ccccc4)C3)(C1)C2 (stereo not drawn) [Example 116, 3-(3-phenoxypyrrolidine-1-carbonyl)bicyclo[1.1.1]-pentane-1-carbonitrile]",> 50000
3,"COC(=O)C12CC(C(=O)NCc3cc(F)cc(F)c3)(C1)C2 [Example 121, methyl 3-((3,5-difluoro-benzyl)carbamoyl)-bicyclo[1.1.1]pentane-1-carboxylate]",> 50000
4,"O=C(N1CC[C@@H](Oc2cc(F)ccc2F)C1)C12CC(CO)(C1)C2 [Example 38, (R)-(3-(2,5-Difluorophenoxy)pyrrolidin-1-yl)(3-(hydroxymethyl)-bicyclo[1.1.1]pentan-1-yl)methanone]",> 50000
5,"N#Cc1cc(OCC23CC(C(=O)N4CC[C@@H](Oc5cc(F)ccc5F)C4)(C2)C3)ncn1 [Example 39, (R)-6-((3-(3-(2,5-difluorophenoxy)pyrrolidine-1-carbonyl)-bicyclo[1.1.1]pentan-1-yl)methoxy)pyrimidine-4-carbonitrile]",> 50000

# Same assay, conditions: 5 nM RIPK1, 50 μM ATP, 6 h reaction; read-out: RIPK1 Enzyme Avg IC50
row,Molecule,IC50
1,"O=C(O)C12CC(C(=O)N3N=CCC3c3cc(F)cc(F)c3)(C1)C2 (stereo not drawn) [Example 2, 3-(5-(3,5-Difluorophenyl)-4,5-dihydro-1H-pyrazole-1-carbonyl)-bicyclo[1.1.1]pentane-1-carboxylic acid]",21200 nM
2,"O=C(N1N=CCC1c1ccccc1)C12CC(O)(C1)C2 (stereo not drawn) [Example 45, (3-Hydroxybicyclo[1.1.1]pentan-1-yl)(5-phenyl-4,5-dihydro-1H-pyrazol-1-yl)methanone]",8590 nM
3,"CCOC12CC(C(=O)N3N=CCC3c3ccccc3)(C1)C2 (stereo not drawn) [Example 46, (3-Ethoxybicyclo[1.1.1]pentan-1-yl)(5-phenyl-4,5-dihydro-1H-pyrazol-1-yl)methanone]",157 nM
4,"1-((3-(5-(3,5-difluorophenyl)-4,5-dihydro-1H-pyrazole-1-carbonyl)bicyclo[1.1.1]-pentan-1-yl)methyl)-1H-pyrazole-3-carbonitrile and 1-((3-(5-(3,5-difluorophenyl)-4,5-dihydro-1H-pyrazole-1-carbonyl)bicyclo[1.1.1]-pentan-1-yl)methyl)-1H-pyrazole-5-carbonitrile [Example 189]",27 nM
5,"COC(=O)C12CC(C(=O)N3N=CCC3c3cc(F)cc(F)c3)(C1)C2 (stereo not drawn) [Example 1, Methyl 3-(5-(3,5-difluorophenyl)-4,5-dihydro-1H-pyrazole-1-carbonyl)bicyclo[1.1.1]pentane-1-carboxylate]",40 nM
6,"O=C(N1CC(F)CC1c1cccc(F)c1)C12CC(C(O)c3ccccc3)(C1)C2 (stereo not drawn) [Example 40, (4-Fluoro-2-(3-fluorophenyl)pyrrolidin-1-yl)(3-(hydroxy(phenyl)methyl)-bicyclo[1.1.1]pentan-1-yl)methanone]",4450 nM
7,"N#Cc1cc(OCC23CC(C(=O)NCc4cc(F)cc(F)c4)(C2)C3)ncn1 [Example 104, 3-(((6-cyanopyrimidin-4-yl)oxy)methyl)-N-(3,5-difluorobenzyl)bicyclo-[1.1.1]pentane-1-carboxamide]",3050 nM
8,"N#Cc1cc(OCC23CC(C(=O)N4CC(F)CC4c4cccc(F)c4)(C2)C3)ccn1 (stereo not drawn) [Example 99, 4-((3-(4-fluoro-2-(3-fluorophenyl)pyrrolidine-1-carbonyl)bicyclo[1.1.1]-pentan-1-yl)methoxy)-picolinonitrile]",280 nM
9,"CN(C)C(=O)C12CC(C(=O)N3N=CCC3c3cc(F)cc(F)c3)(C1)C2 (stereo not drawn) [Example 10, 3-(5-(3,5-Difluorophenyl)-4,5-dihydro-1H-pyrazole-1-carbonyl)-N,N-dimethylbicyclo[1.1.1]pentane-1-carboxamide]",2910 nM
10,"O=C(N1CC(F)CC1c1cccc(F)c1)C12CC(COc3cccc4nncn34)(C1)C2 (stereo not drawn) [Example 103, (3-(([1,2,4]triazolo[4,3-a]-pyridin-5-yloxy)methyl)-bicyclo[1.1.1]pentan-1-yl)(4-fluoro-2-(3-fluorophenyl)-pyrrolidin-1-yl)methanone]",2660 nM
11,"N#Cc1ccc2cnn(CC34CC(C(=O)N5N=CCC5c5cc(F)cc(F)c5)(C3)C4)c2c1 (stereo not drawn) [Example 66, 1-((3-(5-(3,5-difluorophenyl)-4,5-dihydro-1H-pyrazole-1-carbonyl)bicyclo[1.1.1]-pentan-1-yl)methyl)-1H-indazole-6-carbonitrile]",16 nM
12,"N#Cc1cncc(OCC23CC(C(=O)N4CC(F)CC4c4cccc(F)c4)(C2)C3)n1 (stereo not drawn) [Example 96, 6-((3-(4-fluoro-2-(3-fluoro-phenyl)pyrrolidine-1-carbonyl)bicyclo[1.1.1]-pentan-1-yl)methoxy)-pyrazine-2-carbonitrile]",162 nM
13,"(5-(3,5-difluorophenyl)-4,5-dihydro-1H-pyrazol-1-yl)(3-((6-fluoro-2-methyl-1H-benzo[d]imidazol-1-yl)-methyl)bicyclo[1.1.1]pentan-1-yl)methanone and (5-(3,5-difluorophenyl)-4,5-dihydro-1H-pyrazol-1-yl)(3-((5-fluoro-2-methyl-1H-benzo[d]imidazol-1-yl)-methyl)bicyclo[1.1.1]pentan-1-yl)methanone [Example 188]",454 nM
14,"N#Cc1cncn1CC12CC(C(=O)N3N=CCC3c3cc(F)cc(F)c3)(C1)C2 (stereo not drawn) [Example 123, 1-((3-(5-(3,5-difluorophenyl)-4,5-dihydro-1H-pyrazole-1-carbonyl)bicyclo[1.1.1]-pentan-1-yl)methyl)-1H-imidazole-5-carbonitrile]",501 nM
15,"Cc1cccc(OCC23CC(C(=O)N4CC(F)CC4c4cccc(F)c4)(C2)C3)c1 (stereo not drawn) [Example 108, (4-fluoro-2-(3-fluorophenyl)-pyrrolidin-1-yl)(3-((m-tolyloxy)methyl)bicyclo-[1.1.1]pentan-1-yl)methanone]",206 nM
16,"N#Cc1ccc2c(cnn2CC23CC(C(=O)N4N=CCC4c4cc(F)ccc4F)(C2)C3)c1 (stereo not drawn) [Example 53, 1-((3-(5-(2,5-difluorophenyl)-4,5-dihydro-1H-pyrazole-1-carbonyl)-bicyclo[1.1.1]pentan-1-yl)methyl)-1H-indazole-5-carbonitrile]",24 nM
17,"O=C(N1CCC(Oc2ccccc2)C1)C12CC(F)(C1)C2 (stereo not drawn) [Example 114, (3-fluorobicyclo[1.1.1]-pentan-1-yl)(3-phenoxypyrrolidin-1-yl)methanone]",> 16700 nM and 8900 nM
18,"COCc1cn(CC23CC(C(=O)N4N=CCC4c4cc(F)cc(F)c4)(C2)C3)nn1 (stereo not drawn) [Example 149, (5-(3,5-difluorophenyl)-4,5-dihydro-1H-pyrazol-1-yl)(3-((4-(methoxymethyl)-1H-1,2,3-triazol-1-yl)methyl)-bicyclo[1.1.1]pentan-1-yl)methanone]",3930 nM
19,"O=C(N1N=CCC1c1ccccc1)C12CC(C1)C2 (stereo not drawn) [Example 44, Bicyclo[1.1.1]pentan-1-yl(5-phenyl-4,5-dihydro-1H-pyrazol-1-yl)methanone]",38 nM
20,"O=C(N1CC(F)CC1c1cccc(F)c1)C12CC(COc3ncc(F)cn3)(C1)C2 (stereo not drawn) [Example 97, (4-fluoro-2-(3-fluorophenyl)-pyrrolidin-1-yl)(3-(((5-fluoropyrimidin-2-yl)oxy)-methyl)bicyclo[1.1.1]pentan-1-yl)methanone]",219 nM
21,"N#Cc1cccc(NC(=O)C23CC(C(=O)N4N=CCC4c4cc(F)cc(F)c4)(C2)C3)c1 (stereo not drawn) [Example 77, N-(3-cyanophenyl)-3-(5-(3,5-difluorophenyl)-4,5-dihydro-1H-pyrazole-1-carbonyl)-bicyclo[1.1.1]pentane-1-carboxamide]",7110 nM
22,"Cc1cc(C)n(CC23CC(C(=O)N4N=CCC4c4cc(F)cc(F)c4)(C2)C3)n1 (stereo not drawn) [Example 75, (5-(3,5-difluorophenyl)-4,5-dihydro-1H-pyrazol-1-yl)(3-((3,5-dimethyl-1H-pyrazol-1-yl)methyl)bicyclo[1.1.1]-pentan-1-yl)methanone]",323 nM
23,"COC(=O)C12CC(C(=O)N3CC(F)CC3c3cccc(F)c3)(C1)C2 (stereo not drawn) [Example 34, Methyl 3-(4-fluoro-2-(3-fluorophenyl)pyrrolidine-1-carbonyl)-bicyclo[1.1.1]pentane-1-carboxylate]",1070 nM
24,"(3-((3-cyclopropyl-1H-pyrazol-1-yl)methyl)-bicyclo[1.1.1]pentan-1-yl)(5-(3,5-difluorophenyl)-4,5-dihydro-1H-pyrazol-1-yl)methanone and (3-((5-cyclopropyl-1H-pyrazol-1-yl)methyl)-bicyclo[1.1.1]pentan-1-yl)(5-(3,5-difluorophenyl)-4,5-dihydro-1H-pyrazol-1-yl)methanone [Example 191]",74 nM
25,"O=C(N1N=CCC1c1cc(F)cc(F)c1)C12CC(CN3CCOCC3)(C1)C2 (stereo not drawn) [Example 13, (5-(3,5-Difluorophenyl)-4,5-dihydro-1H-pyrazol-1-yl)(3-(morpholinomethyl)bicyclo[1.1.1]pentan-1-yl)methanone]",1510 nM
